Source: BindingDB's records for doi:10.1021/jm0203130 (Merck Research Laboratories, 2002)

molecular target: Integrin alpha-IIb/beta-3 (Homo sapiens, UniProt P08514+P05106); test: Inhibition of integrin alphaIIb-beta3 in platelet aggregation assay
Sequence (P05106 27-788 limits assumed): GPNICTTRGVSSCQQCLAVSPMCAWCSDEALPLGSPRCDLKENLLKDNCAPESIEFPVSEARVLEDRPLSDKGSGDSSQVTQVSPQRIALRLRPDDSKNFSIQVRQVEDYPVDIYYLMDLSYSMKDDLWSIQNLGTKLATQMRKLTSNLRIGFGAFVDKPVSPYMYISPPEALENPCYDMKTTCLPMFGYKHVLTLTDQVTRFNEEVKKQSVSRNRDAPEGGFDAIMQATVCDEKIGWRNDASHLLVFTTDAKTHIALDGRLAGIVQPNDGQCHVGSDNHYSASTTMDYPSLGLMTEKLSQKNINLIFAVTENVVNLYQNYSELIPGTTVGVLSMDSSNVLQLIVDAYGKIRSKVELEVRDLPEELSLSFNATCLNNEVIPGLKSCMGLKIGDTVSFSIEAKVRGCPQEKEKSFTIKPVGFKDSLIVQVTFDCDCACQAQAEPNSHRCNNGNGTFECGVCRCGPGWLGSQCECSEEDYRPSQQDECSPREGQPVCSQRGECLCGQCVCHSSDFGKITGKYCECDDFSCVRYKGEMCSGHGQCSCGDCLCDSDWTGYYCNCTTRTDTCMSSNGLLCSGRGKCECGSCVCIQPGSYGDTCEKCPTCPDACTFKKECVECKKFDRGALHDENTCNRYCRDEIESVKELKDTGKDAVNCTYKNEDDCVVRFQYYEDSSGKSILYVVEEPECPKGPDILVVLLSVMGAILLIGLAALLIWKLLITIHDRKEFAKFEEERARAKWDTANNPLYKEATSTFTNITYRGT
Sequence (P08514 32-887 limits assumed): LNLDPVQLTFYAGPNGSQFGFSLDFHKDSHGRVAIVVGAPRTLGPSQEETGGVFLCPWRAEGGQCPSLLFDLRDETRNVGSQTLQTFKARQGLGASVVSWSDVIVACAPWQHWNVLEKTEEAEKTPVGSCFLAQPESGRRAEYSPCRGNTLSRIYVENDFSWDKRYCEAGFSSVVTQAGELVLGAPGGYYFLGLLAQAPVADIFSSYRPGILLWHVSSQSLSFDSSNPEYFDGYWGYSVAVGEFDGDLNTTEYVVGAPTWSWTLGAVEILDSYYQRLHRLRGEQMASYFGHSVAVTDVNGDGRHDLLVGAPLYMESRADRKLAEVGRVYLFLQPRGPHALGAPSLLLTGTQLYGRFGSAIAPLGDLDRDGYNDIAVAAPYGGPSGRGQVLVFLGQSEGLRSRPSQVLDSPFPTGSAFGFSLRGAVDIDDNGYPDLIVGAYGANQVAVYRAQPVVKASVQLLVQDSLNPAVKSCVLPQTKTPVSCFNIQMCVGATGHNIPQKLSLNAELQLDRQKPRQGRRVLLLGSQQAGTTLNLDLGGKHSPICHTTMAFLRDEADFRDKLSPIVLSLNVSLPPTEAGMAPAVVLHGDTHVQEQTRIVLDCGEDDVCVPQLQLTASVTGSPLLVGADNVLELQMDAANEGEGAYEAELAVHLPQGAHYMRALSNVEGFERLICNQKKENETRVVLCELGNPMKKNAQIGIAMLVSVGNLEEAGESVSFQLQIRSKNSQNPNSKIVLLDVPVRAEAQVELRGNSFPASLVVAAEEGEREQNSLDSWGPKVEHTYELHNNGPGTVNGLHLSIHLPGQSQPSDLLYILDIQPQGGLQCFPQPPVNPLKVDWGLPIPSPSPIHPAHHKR
Sequence (P08514 891-1039 limits assumed): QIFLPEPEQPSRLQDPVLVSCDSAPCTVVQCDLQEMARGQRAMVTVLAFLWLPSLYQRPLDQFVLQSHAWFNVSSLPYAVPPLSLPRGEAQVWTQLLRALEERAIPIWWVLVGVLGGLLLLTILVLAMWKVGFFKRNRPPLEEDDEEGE

**Q.** How did the IC50 turn out when `O=C(NC[C@H](NS(=O)(=O)c1ccccc1)C(=O)O)c1ccc(CCc2ccc3c(n2)NCCC3)cc1` [2-Benzenesulfonylamino-3-{4-[2-(5,6,7,8-tetrahydro-[1,8]naphthyridin-2-yl)-ethyl]-benzoylamino}-propionic acid] was run?
**A.** 0.26 µM

**Q.** With `Nc1cccc(CCc2ccc(C(=O)NC[C@H](NS(=O)(=O)c3ccc(I)cc3)C(=O)O)cc2)n1` [3-{4-[2-(6-Amino-pyridin-2-yl)-ethyl]-benzoylamino}-2-(4-iodo-benzenesulfonylamino)-propionic acid] as the compound, how does the IC50 read?
**A.** 1.6 µM

**Q.** With `O=C(O)C[C@H](NC(=O)CN1CCC(CCc2ccc3c(n2)NCCC3)C1=O)c1cnc2ccccc2c1` (some centres not stated) [3-(2-{2-Oxo-3-[2-(5,6,7,8-tetrahydro-[1,8]naphthyridin-2-yl)-ethyl]-pyrrolidin-1-yl}-acetylamino)-3-quinolin-3-yl-propionic acid] as the compound, how does the IC50 read?
**A.** 0.776 µM

**Q.** How did the IC50 turn out when `CNc1cccc(CCOc2ccc3c(c2)CN(CC(F)(F)F)C(=O)[C@H](CC(=O)O)C3)n1` [[(S)-8-[2-(6-Methylamino-pyridin-2-yl)-ethoxy]-3-oxo-2-(2,2,2-trifluoro-ethyl)-2,3,4,5-tetrahydro-1H-benzo[c]azepin-4-yl]-acetic acid] was run?
**A.** > 10 µM

**Q.** For `O=C(O)C[C@H](NC(=O)CNC(=O)CCCc1ccc2c(n1)NCCC2)c1cccnc1` [(S)-3-Pyridin-3-yl-3-[2-(4-5,6,7,8-tetrahydro-[1,8]naphthyridin-2-yl-butyrylamino)-acetylamino]-propionic acid], which IC50 is on record?
**A.** > 10 µM

**Q.** `O=C(O)C[C@H](NC(=O)CN1CCC(CCc2ccc3c(n2)NCCC3)C1=O)c1cccnc1` (some centres not stated) [3-(2-{2-Oxo-3-[2-(5,6,7,8-tetrahydro-[1,8]naphthyridin-2-yl)-ethyl]-pyrrolidin-1-yl}-acetylamino)-3-pyridin-3-yl-propionic acid] was tested. Which IC50 did it give?
**A.** > 10 µM

**Q.** How did the IC50 turn out when `O=C(O)CCNC(=O)CNC(=O)CCCc1ccc2c(n1)NCCC2` [3-[2-(4-5,6,7,8-Tetrahydro-[1,8]naphthyridin-2-yl-butyrylamino)-acetylamino]-propionic acid] was run?
**A.** > 10 µM
